Results on 80 compounds are retold here after the METLIN SMRT retention time set (Domingo-Almenara et al. 2019).

SMILES strings stand for the structures.

The data set in a line: gradient 5% acetonitrile 3 min, to 50% in 2 min, to 85% in 15 min, held 3 min, 100 µL/min. Particulars: column: Zorbax Extend-C18 2.1 x 50 mm; eluents: water / acetonitrile, 0.1% formic acid. The gist of the method: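 A Zorbax Extend-C18 column (2.1 × 50 mm, 1.8 μm) run at 100 μL/min with water and acetonitrile, both containing 0.1% formic acid, separated mixtures of ~100 pure standards. The HPLC was coupled to a quadrupole time-of-flight mass spectrometer operated in positive and negative ionization mode, with dead and dwell volumes of 40 μL and 900 μL. Each retention time was taken from a computationally picked adduct peak that was then manually inspected.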
Regarding `COC(=O)c1ccc2c(=O)n(-c3ccc(OC)cc3)c(N3CCOCC3)nc2c1`, the RP-LC retention time is 896 s.
The value for `COc1ccc(OC)c(S(=O)(=O)N2CCN(c3ccccn3)CC2)c1` was 594 s; that for `O=c1c(=O)n(-c2cccc(Cl)c2)ccn1Cc1nc(-c2cccc(F)c2)no1` was 895 s; that for `CCc1cc(N2CCN(C(=O)c3ccc(C#N)cc3)CC2)nc2nncn12` was 581 s.
The value for `CC(C)n1cnc2cc(CNC(=O)C3CCCCC3)ccc21` was 611 s.
The value for `Cc1ccc(NC(=O)c2cn(-c3cc(-c4nc(C5CC5)no4)ccn3)cn2)c(C)c1` was 1090 s; that for `Cc1ccc(NC(=O)C2CCN(S(=O)(=O)c3cc(-c4noc(C5CC5)n4)ccc3C)CC2)nc1` was 868 s; that for `O=C(c1ccc(-n2cccn2)nc1)N1CCSCC1` was 714 s.
In turn, `O=C(NCCOc1ccc2nnc(-c3ccccc3Cl)n2n1)c1cccs1` registered an RP-LC retention time of 664 s.
On to `O=C(NCCc1cccs1)C1CCN(C(=O)c2ncn3c2COC(c2ccc(Cl)cc2)C3)CC1` (stereo not given), for which the RP-LC retention time is 808 s.
In turn, `CCOC(=O)c1c(S(=O)(=O)N2CCC(C(=O)Nc3ccc(C)cc3C)CC2)c(C)n(CC)c1C` had an RP-LC retention time of 928 s.
The compound `O=C(N[C@H]1C[C@@H]2C[C@H]1CN2C(=O)NCCc1ccccc1)c1cccs1` registered an RP-LC retention time of 716 s.
The value for `CCNC(=O)C1CCCN(C(=O)Nc2ccc(NC(=O)Nc3ccc(F)cc3)cc2)C1` (stereo not given) was 691 s; that for `O=C(Cn1nc(N2CCSCC2)c2ccccc2c1=O)Nc1ccc(Br)cc1` was 1000 s.
Compound `Cc1ccc(CNC(=O)c2cccn2Cc2noc(C)n2)cc1` registered an RP-LC retention time of 828 s.
As to `CCn1nccc1C(=O)NCCn1c(=O)n(Cc2ccc(F)cc2)c2cccnc21`, the RP-LC retention time came out at 729 s.
The value for `CC(CNC(=O)c1cc2sccc2n1C)c1ccccc1` (stereo not given) was 983 s; that for `CN(C)C(=O)c1ccc2c(c1)N(CC(=O)Nc1ccccn1)C(=O)C1CCCCN21` (stereo not given) was 680 s.
The value for `O=C(NCCC1CCN(C(=O)Nc2cc(F)cc(F)c2)CC1)c1cccs1` was 861 s; that for `COC(=O)c1cc2n(n1)CC(C)(C(=O)NC1CCCC1)N(c1ccccc1C)C2=O` (stereo not given) was 801 s; that for `CCn1ncc(NC(=O)COc2ccc(C)cc2)c(N2CCOCC2)c1=O` was 764 s.
`CN(C)c1cccc(C(=O)NCC2(O)CCCC2)c1` came in with an RP-LC retention time of 569 s.
`Cc1ccc(OCc2nc(C3CCNC3)no2)cc1` (stereo not given) returned an RP-LC retention time of 641 s.
As for `Cn1nccc1-c1cccc(-c2noc(COc3ccc(Cl)cc3)n2)c1`, the RP-LC retention time amounted to 1120 s.
The value for `CCOCC(=O)NCCNC(=O)c1ccc(NC(C)=O)cc1` was 570 s; that for `Cc1nn2c(CNS(=O)(=O)c3cc(C)c(C)cc3C)c(-c3ccccc3)nc2s1` was 941 s.
For `O=C(Nc1cc(F)ccc1F)N1CCC(CCNC(=O)C2(c3ccccc3)CC2)CC1`, the RP-LC retention time was found to be 948 s.
The value for `CC1CCCCN1CCCNC(=O)C1CCN(c2nc3cccnc3s2)CC1` (stereo not given) was 587 s; that for `O=C(Nc1nnc(-c2cc3ccccc3o2)o1)c1ccc(Cl)s1` was 902 s.
`Cc1nc2ccn(Cc3cccs3)c(=O)c2cc1C(=O)N1CCN(c2ccccn2)CC1` displayed an RP-LC retention time of 611 s.
Consider `CC1(C)CNc2cc(NC(=O)c3cccnc3NCc3ccncc3)ccc21`, for which the RP-LC retention time was 603 s.
As to `CC1(C(=O)NCc2ccc(F)cc2)CCCN(C(=O)NC2CCCCC2)C1` (stereo not given), the RP-LC retention time stood at 895 s.
The compound `CCOc1ccc2nc(C(=O)NC(CC)c3ccc(OC)cc3)cn2n1` (stereo not given) gave an RP-LC retention time of 897 s.
Compound `O=C(Cn1c(=O)c2cccn2c2ccc(F)cc21)NC1CCCC1` came in with an RP-LC retention time of 800 s.
On to `CCCc1c(C(=O)O)nnn1-c1ccc(C)cc1F`, for which the RP-LC retention time was determined as 761 s.
Turning to `CCOC(=O)C1CCN(C(c2cccnc2)c2c(NC(=O)c3ccco3)sc(C)c2C)CC1` (stereo not given), the RP-LC retention time worked out at 926 s.
The value for `COc1ccc(C2C(=O)N(CCc3ccccc3)CC(=O)N2Cc2ccc3c(c2)OCO3)cc1` (stereo not given) was 933 s; that for `Cc1ccccc1Nc1c(-c2ccccc2O)nc2cccc(C)n12` was 676 s.
Compound `O=S(=O)(Cc1ccccc1)N1CCCC(c2nnnn2-c2ccccc2)C1` (stereo not given) gave an RP-LC retention time of 905 s.
`CCNC(=O)c1ccc2c(c1)CCN2C(=O)CC` registered an RP-LC retention time of 651 s.
`CC1(C)CCC[C@]2(C)[C@H]3CC(=O)O[C@]3(C)CC[C@@H]12` showed an RP-LC retention time of 1220 s.
The value for `C[C@H]1CN(C(=O)c2ccc(F)cc2)C[C@@H]1c1nc(-c2ccccc2)no1` was 996 s; that for `NS(=O)(=O)c1ccc(NC(=O)c2cnc3ccccn3c2=O)cc1` was 610 s.
For the compound `Cc1[nH]c(C(=O)N2CCC(CC(=O)NCCN3CCCCC3)CC2)c(C)c1C`, the RP-LC retention time was determined as 604 s.
Regarding `CCCCNC(=O)c1nnn2c1COC(c1ccc(F)cc1)C2` (stereo not given), the RP-LC retention time amounted to 929 s.
`CCn1c(=O)sc2cc(S(=O)(=O)N3CCC(C(=O)N4CCC5(CC4)OCCO5)CC3)ccc21`: the RP-LC retention time was determined as 781 s.
`Cc1cccc(-c2nnc(Cc3nc(-c4ccccc4)no3)o2)c1` returned an RP-LC retention time of 1040 s.
The value for `O=C(Cc1csc(Nc2ncccn2)n1)NCC(F)(F)F` was 626 s; that for `COCCC1CCN(C(=O)CN(C)C(=O)COc2ccccc2)CC1` was 694 s; that for `CCc1nc2cc(N3CCCC(C(=O)NC(C)C)C3)cnc2nc1CC` (stereo not given) was 747 s.
In the case of `CCc1ccc(NC(=O)C2(C)Oc3cccnc3N(C(C)C)C2=O)cc1` (stereo not given) it was 1120 s; in that of `COc1ccc(-c2cc(N3CCC(NC(=O)c4ccc(C#N)cc4)C3)n[nH]2)cc1` (stereo not given), 685 s.
`O=C(Nc1ccccc1-c1nc2ccccc2[nH]1)c1cccc([N+](=O)[O-])c1` displayed an RP-LC retention time of 1040 s.
In the case of `CCn1cnc(S(=O)(=O)N2CCCC(C(=O)Nc3ccc(C)cc3C)C2)c1` (stereo not given) it was 753 s.
`NC(=O)C1(N2CCCCC2)CCN(C(=O)c2c(-c3ccccc3)nnc3ccccc23)CC1` came in with an RP-LC retention time of 588 s.
In the case of `O=C(Cc1nnc(-c2ccncc2)o1)NCc1ccc(C(F)(F)F)cc1` it was 718 s; in that of `O=C(c1ccoc1)N1CCC2(CC1)N=C(c1ccc(Cl)cc1)NO2`, 774 s; in that of `COc1ccc(-c2noc(C3CCCN3C(=O)c3ccccc3F)n2)cc1` (stereo not given), 952 s.
The value for `Cc1ccc(C)c(N2CCN(C(=O)c3cc(-c4ccncc4)cn3C)CC2)c1` was 710 s; that for `CCOc1ccc(NC(=O)c2cc(S(=O)(=O)N3CCCC(C)C3)cn2C)cc1` (stereo not given) was 1080 s.
The value for `CCc1nc2cc3c(cc2n1CC(=O)Nc1cccc(OC)c1)OCCO3` was 660 s; that for `CCCn1nnnc1NCc1ccc2c(c1)n(C)c(=O)n2C` was 638 s.
In the case of `CCCn1c(-c2cccc(C(=O)NCC3CCCCC3)c2)nc2cccnc21`, the RP-LC retention time amounted to 904 s.
`CCOC(=O)Cc1c(C)nc2cc(-c3ccccc3)nn2c1C` displayed an RP-LC retention time of 1020 s.
Turning to `Cc1cc(C)c(S(=O)(=O)Nc2cccc(C(F)(F)F)c2)c(C)c1`, the RP-LC retention time turned out to be 1100 s.
In the case of `CC1(CNS(=O)(=O)c2ccc(F)cc2F)CCOCC1` it was 779 s; in that of `O=C(CN1C(=O)COc2ccc(S(=O)(=O)N3CCOCC3)cc21)NCCc1c[nH]c2ccccc12`, 777 s; in that of `COc1ccc(NC(=O)N2CCCC2c2nc(-c3cccc(Cl)c3)no2)c(OC)c1` (stereo not given), 1070 s.
In the case of `CCc1nnc2ccc(-c3noc(-c4cc(Cl)ccc4F)n3)cn12` it was 1010 s; in that of `Cc1ccc(C)c(NS(=O)(=O)c2c(C)sc(C)c2-c2n[nH]c(C)c2C)c1`, 1140 s.
In turn, `COc1ccc(OC)c(-c2csc(-c3nnn(-c4ccc(C)cc4)c3N)n2)c1` displayed an RP-LC retention time of 1160 s.
For the compound `NC(=O)c1ncn2c(=O)n(CCCl)nnc12`, the RP-LC retention time worked out at 645 s.
The value for `COc1ccc(-c2csc3c(=O)n(Cc4ccc(F)cc4)cnc23)cc1OC` was 951 s.
In the case of `Cc1ccc(C)c(CNc2nc3ccncc3n(Cc3ccccc3)c2=O)c1` it was 798 s; in that of `COc1ccc(NC(=O)C2CCN(S(=O)(=O)c3ccc4c(c3)NC(=O)CO4)CC2)cc1Cl`, 777 s; in that of `CCOc1cc(C)c(C(C)C)cc1S(=O)(=O)NCc1ccccn1`, 766 s.
`CCn1c(=O)oc2cc(-c3noc(-c4ccc(C)cc4)n3)ccc21` registered an RP-LC retention time of 1060 s.
In the case of `Cc1ccc(S(=O)(=O)N2CCCC2c2nc(-c3cccc(Cl)c3)no2)cc1C` (stereo not given) it was 1270 s; in that of `Cc1ccccc1NC(=O)c1cnc2c(c1)c(=O)n(C)c(=O)n2-c1ccccc1`, 700 s.
Take `COCCCn1c(=O)c2ccccc2n(Cc2nc(-c3cccc(C(F)(F)F)c3)no2)c1=O`: the RP-LC retention time was 1080 s.
